Assay results from the NIST ThermoML archive (doi:10.1021/je800984q).

Legend:
[1] = Liquid; for viscosity / mass density: 298.15 K, 101 kPa; for viscosity: Capillary tube (Ostwald / Ubbelohde) method; for mass density: Vibrating tube method
[2] = xn = mol fraction of the nth substance listed; conditions: 298.15 K, 101 kPa, Liquid; for viscosity: Capillary tube (Ostwald / Ubbelohde) method; for mass density: Vibrating tube method

CCOC(=O)OCC [diethyl carbonate]
[1]
Conditions	mass density [kg/m3]	viscosity [mPa·s]
–	969	0.764

[1]
Conditions	vapor or sublimation pressure [kPa]
343.77 K	13.8
351.67 K	19.3
355.63 K	22.7
358.29 K	26
363.84 K	31.3
366.98 K	35.2
369.75 K	39.1
372.28 K	42.8
374.61 K	46.5
377.05 K	50.5
379.59 K	55
381.49 K	58.8
383.37 K	63.1
383.57 K	63.5
386.18 K	68.5
387.61 K	72.8
390.35 K	78.5
392.39 K	84
393.93 K	88.2
395.72 K	93.4
398.28 K	101.5

CCOC(=O)OCC [diethyl carbonate] + C1CC2C3CCC(C3)C2C1
[2], x1 = 1
Conditions	mass density [kg/m3]	viscosity [mPa·s]
–	969	0.764

C1CC2C3CCC(C3)C2C1 (stereo not given) [tricyclo[5.2.1.0(2,6)]decane]
[1]
Conditions	mass density [kg/m3]	viscosity [mPa·s]
–	931.4	2.739

[1]
Conditions	vapor or sublimation pressure [kPa]
393.98 K	15
396.02 K	16.6
401.42 K	20.6
413.88 K	30.3
418.34 K	34.8
426.86 K	44.9
431.22 K	50.7
434.56 K	55.8
436.68 K	59.2
439.31 K	63.2
441.13 K	66.6
442.7 K	69.5
442.81 K	69.8
444.37 K	72.9
445.73 K	75.1
446.13 K	75.9
450.08 K	83.9
457.66 K	101.1

C1CC2C3CCC(C3)C2C1 (stereo not given) [tricyclo[5.2.1.0(2,6)]decane] + CCOC(=O)OCC
[2]
Conditions	mass density [kg/m3]	viscosity [mPa·s]
x2 = 0	931.4	2.739
x2 = 0.1141	933.1	2.14
x2 = 0.2235	935.3	1.757
x2 = 0.3303	938.1	1.496
x2 = 0.4355	941.3	1.292
x2 = 0.536	944.8	1.149
x2 = 0.6336	948.8	1.026
x2 = 0.7288	953.4	0.938
x2 = 0.8207	958.2	0.861
x2 = 0.9109	963.5	0.814
